Data as given in patent US9732060B2, “Aminotriazine derivative and pharmaceutical composition comprising the same” (Shionogi & Co., Ltd., priority 2013, dated 2017).

Assays:
[1] = Solubility test (1% DMSO, artificial intestinal juice pH 6.8); format: physicochemical; conditions: artificial intestinal juice pH 6.8 with 1% DMSO, 25 °C, fassgf or other biorelevant, kinetic from dmso stock, artificial intestinal juice pH 6.8, 25 degrees Celsius, read-out: Solubulity
[2] = Metabolism stability test, pooled human hepatic microsomes; format: in vitro ADME; conditions: remaining rate, human liver microsomes, 30 minutes, compound concentration 0.5 μmol/L
Experimental: Using commercially available pooled human hepatic microsomes, a test compound is reacted for a constant time, a remaining rate is calculated by comparing a reacted sample and an unreacted sample, thereby, a degree of metabolism in liver is assessed.
A reaction was performed (oxidative reaction) at 37° C. for 0 minute or 30 minutes in the presence of 1 mmol/L NADPH in 0.2 mL of a buffer (50 mmol/L tris-HCl pH 7.4, 150 mmol/L potassium chloride, 10 mmol/L magnesium chloride) containing 0.5 mg protein/mL of human liver microsomes. After the reaction, 50 μL of the reaction solution was added to 100 μL of a methanol/acetonitrile=1/1 (v/v) mixed and centrifuged at 3000 rpm for 15 minutes. The test compound in the supernatant was quantified by LC/MS/MS, and a remaining amount of the test compound after the reaction was calculated, letting a compound amount at 0 minute reaction time to be 100%.
The remaining rate at the compound concentration 0.5 μmol/L are shown below.

[3] = target: human ether-a-go-go related gene (hERG) channel (Homo sapiens (Human), UniProt Q12809); assay: hERG test (whole cell patch clamp, IKr); format: cell-based; conditions: CHO cells expressing hERG channel, IKr tail peak current
Description: For the purpose of assessing risk of an electrocardiogram QT interval prolongation of the compound of the present invention, effects of the compound of the present invention on delayed rectifier K+ current (IKr), which plays an important role in the ventricular repolarization process, was studied using CHO cells expressing human ether-a-go-go related gene (hERG) channel.
After a cell was retained at a membrane potential of −80 mV by whole cell patch clamp method using an automated patch clamp system (QPatch: Sophion Bioscience A/S) and gave a leak potential of −50 mV, IKr induced by depolarization pulse stimulation at +20 mV for 2 seconds and, further, repolarization pulse stimulation at −50 mV for 2 seconds, was recorded. […] From the recording IKr, an absolute value of the tail peak current was measured based on the current value at the resting membrane potential using analysis software (Falster Patch; Sophion Bioscience A/S). Further, the % inhibition relative to the tail peak current before application of the compound of the present invention was calculated, and compared with the vehicle-applied group (0.1% dimethyl sulfoxide solution) to assess influence of the compound of the present invention on IKr.

Sequence of human ether-a-go-go related gene (hERG) channel (Q12809 whole entry): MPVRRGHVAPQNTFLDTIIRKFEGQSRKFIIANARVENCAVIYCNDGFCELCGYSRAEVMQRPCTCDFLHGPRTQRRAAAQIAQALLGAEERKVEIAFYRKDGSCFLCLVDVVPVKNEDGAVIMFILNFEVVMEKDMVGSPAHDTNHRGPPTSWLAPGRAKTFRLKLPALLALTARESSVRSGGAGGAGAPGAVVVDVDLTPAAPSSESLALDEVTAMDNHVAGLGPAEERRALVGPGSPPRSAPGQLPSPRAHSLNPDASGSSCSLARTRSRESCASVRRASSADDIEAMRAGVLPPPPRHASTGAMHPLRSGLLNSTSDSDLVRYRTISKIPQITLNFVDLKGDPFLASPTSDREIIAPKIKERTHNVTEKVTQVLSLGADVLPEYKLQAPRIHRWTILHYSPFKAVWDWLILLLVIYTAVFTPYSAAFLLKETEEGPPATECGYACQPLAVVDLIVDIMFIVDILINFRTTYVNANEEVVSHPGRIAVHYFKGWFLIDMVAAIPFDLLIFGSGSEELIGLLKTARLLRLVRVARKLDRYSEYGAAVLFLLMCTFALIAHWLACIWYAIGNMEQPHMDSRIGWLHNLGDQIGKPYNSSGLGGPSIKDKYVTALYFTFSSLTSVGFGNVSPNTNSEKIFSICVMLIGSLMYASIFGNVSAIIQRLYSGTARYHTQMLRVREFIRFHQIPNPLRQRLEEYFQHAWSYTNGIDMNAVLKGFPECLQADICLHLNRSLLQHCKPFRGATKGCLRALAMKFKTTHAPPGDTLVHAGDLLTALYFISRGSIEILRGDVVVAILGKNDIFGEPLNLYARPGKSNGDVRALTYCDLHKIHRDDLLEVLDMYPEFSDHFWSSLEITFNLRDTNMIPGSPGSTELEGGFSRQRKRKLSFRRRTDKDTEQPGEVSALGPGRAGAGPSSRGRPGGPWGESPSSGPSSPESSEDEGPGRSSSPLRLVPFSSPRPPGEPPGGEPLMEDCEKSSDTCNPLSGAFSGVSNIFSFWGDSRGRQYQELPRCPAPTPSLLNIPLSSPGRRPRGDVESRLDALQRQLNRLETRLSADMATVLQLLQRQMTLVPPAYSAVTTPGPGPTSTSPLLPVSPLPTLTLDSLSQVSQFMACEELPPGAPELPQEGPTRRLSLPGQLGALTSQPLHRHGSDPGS

Row | solubility at 18 h [1] | Metabolism Stability [2] | SMILES | hERG Inhibition [3]
1 | > 50 µM | 99% | C[C@@H](C(=O)O)[C@H](C)n1c(=O)[nH]/c(=N\c2ccc(Oc3ccc(F)cn3)c(F)c2)n(Cc2ccc(Cl)cc2)c1=O [Compound I-002] | 7.3%
2 | – | – | CC(C)(Cn1c(=O)[nH]/c(=N\c2ccc(Oc3ccc(Cl)cn3)cc2)n(Cc2ccc(Cl)cc2)c1=O)C(=O)O [Compound I-006] | 5.3%
